Test results reported in PubChem BioAssay AID256 (DTP/NCI, 2004).
Values joined by “and” are separate entries in the source; they are usually repeats but may differ in a detail not shown here. Identical values can stand only once. Toxic doses and inconclusive results are not listed. How the source made its calls: active means survival T/C of 150% or more; inactive means T/C below 125% in these data.

Tested on: CD2F1 mice, L1210 leukemia ip, survival T/C
Test: NCI In Vivo Anticancer Drug Screen. Data for tumor model L1210 Leukemia (intraperitoneal) in CD2F1 (CDF1) mice
Conditions: higher = longer survival
Procedure, shortened: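 Activity against a transplanted murine tumor was judged by comparing the compound group with a vehicle group. The outcome in the treated animals was divided by that in the controls.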

[1] = endpoint: mean survival time, dose: 25.0 mg/kg/injection, schedule: Q04DX003 (ip), vehicle: saline with Tween-80
[2] = endpoint: mean survival time, dose: 50.0 mg/kg/injection, schedule: Q01DX001 (ip), vehicle: saline with Tween-80
[3] = endpoint: mean survival time, dose: 50.0 mg/kg/injection, schedule: Q04DX003 (ip), vehicle: saline with Tween-80
[4] = endpoint: mean survival time, dose: 100.0 mg/kg/injection, schedule: Q01DX001 (ip), vehicle: saline with Tween-80
[5] = endpoint: mean survival time, dose: 100.0 mg/kg/injection, schedule: Q04DX003 (ip), vehicle: saline with Tween-80
[6] = endpoint: mean survival time, dose: 100.0 mg/kg/injection, schedule: Q01DX001 (ip), vehicle: saline
[7] = endpoint: mean survival time, dose: 200.0 mg/kg/injection, schedule: Q01DX001 (ip), vehicle: saline with Tween-80
[8] = endpoint: mean survival time, dose: 12.5 mg/kg/injection, schedule: Q01DX009 (ip), vehicle: saline with Tween-80
[9] = endpoint: mean survival time, dose: 25.0 mg/kg/injection, schedule: Q01DX009 (ip), vehicle: saline with Tween-80
[10] = endpoint: mean survival time, dose: 50.0 mg/kg/injection, schedule: Q01DX009 (ip), vehicle: saline with Tween-80
[11] = endpoint: mean survival time, dose: 100.0 mg/kg/injection, schedule: Q01DX009 (ip), vehicle: saline with Tween-80
[12] = endpoint: mean survival time, dose: 200.0 mg/kg/injection, schedule: Q01DX009 (ip), vehicle: saline with Tween-80
[13] = endpoint: mean survival time, dose: 400.0 mg/kg/injection, schedule: Q01DX009 (ip), vehicle: saline with Tween-80
[14] = endpoint: mean survival time, dose: 200.0 mg/kg/injection, schedule: Q04DX003 (ip), vehicle: saline with Tween-80
[15] = endpoint: mean survival time, dose: 400.0 mg/kg/injection, schedule: Q04DX003 (ip), vehicle: saline with Tween-80

Measured: T/C

O=S(=O)(F)c1ccc(O)cc1
inactive: endpoint: mean survival time, dose: 25.0 mg/kg/injection, schedule: Q01DX009 (ip), vehicle: saline + alcohol 93 % of control | [1] 93 % of control | [2] 96 % of control | endpoint: mean survival time, dose: 50.0 mg/kg/injection, schedule: Q01DX009 (ip), vehicle: saline + alcohol 95 % of control and 100 % of control | [3] 93 % of control | [4] 95 % of control | endpoint: mean survival time, dose: 100.0 mg/kg/injection, schedule: Q01DX009 (ip), vehicle: saline + alcohol 93 % of control and 95 % of control | endpoint: mean survival time, dose: 100.0 mg/kg/injection, schedule: Q04DX002 (ip), vehicle: saline with Tween-80 103 % of control and 107 % of control | [5] 101 % of control

COc1cc(C)n2nnnc2n1
inactive: [6] 107 % of control

N#CC(C#N)=Cc1cccc2ccccc12
inactive: endpoint: mean survival time, dose: 50.0 mg/kg/injection, schedule: Q04DX003 (ip), vehicle: Klucel (hydroxypropylcellulose) (HPC) 98 % of control | endpoint: mean survival time, dose: 100.0 mg/kg/injection, schedule: Q04DX003 (ip), vehicle: Klucel (hydroxypropylcellulose) (HPC) 103 % of control | endpoint: mean survival time, dose: 200.0 mg/kg/injection, schedule: Q04DX003 (ip), vehicle: Klucel (hydroxypropylcellulose) (HPC) 101 % of control

NNc1ncnc2c1ccn2C1OC(CO)C(O)C1O (stereo not drawn)
inactive: endpoint: mean survival time, dose: 35.0 mg/kg/injection, schedule: Q01DX001 (ip), vehicle: saline 116 % of control | endpoint: mean survival time, dose: 53.0 mg/kg/injection, schedule: Q01DX001 (ip), vehicle: saline 110 % of control | endpoint: mean survival time, dose: 80.0 mg/kg/injection, schedule: Q01DX001 (ip), vehicle: saline 112 % of control | endpoint: mean survival time, dose: 120.0 mg/kg/injection, schedule: Q01DX001 (ip), vehicle: saline 116 % of control

Cc1cc2oc(=O)c(Cl)c(NCCO)c2c(C)c1Cl
inactive: [4] 98 % of control | [7] 98 % of control | endpoint: mean survival time, dose: 400.0 mg/kg/injection, schedule: Q01DX001 (ip), vehicle: saline with Tween-80 93 % of control

CN(N=O)C(=O)Nc1ccc(C2CC(=O)N(C)C2=O)cc1 (stereo not drawn)
inactive: endpoint: mean survival time, dose: 12.5 mg/kg/injection, schedule: Q01DX001 (ip), vehicle: distilled water + Tween-80 113 % of control | endpoint: mean survival time, dose: 25.0 mg/kg/injection, schedule: Q01DX001 (ip), vehicle: distilled water + Tween-80 101 % of control and 106 % of control | endpoint: mean survival time, dose: 50.0 mg/kg/injection, schedule: Q01DX001 (ip), vehicle: distilled water + Tween-80 108 % of control and 112 % of control | endpoint: mean survival time, dose: 100.0 mg/kg/injection, schedule: Q01DX001 (ip), vehicle: distilled water + Tween-80 113 % of control | endpoint: mean survival time, dose: 200.0 mg/kg/injection, schedule: Q01DX001 (ip), vehicle: distilled water + Tween-80 112 % of control

O=C(O)C(CO)C(CO)C(=O)O (stereo not drawn)
inactive: endpoint: mean survival time, dose: 50.0 mg/kg/injection, schedule: Q01DX001 (ip), vehicle: saline 107 % of control | [6] 121 % of control | endpoint: mean survival time, dose: 200.0 mg/kg/injection, schedule: Q01DX001 (ip), vehicle: saline 101 % of control | endpoint: mean survival time, dose: 400.0 mg/kg/injection, schedule: Q01DX001 (ip), vehicle: saline 106 % of control

O=C(COc1ccccc1)NCc1ccc([N+](=O)[O-])cc1
inactive: [2] 96 % of control | [4] 96 % of control | [7] 91 % of control

O=C(Nc1cc(C(F)(F)F)ccc1Cl)c1cccc(C(=O)Nc2cc(C(F)(F)F)ccc2Cl)c1
inactive: [8] 86 % of control | [9] 90 % of control | [10] 92 % of control

CC(=O)Nc1ccc(OC(C)=O)cc1
inactive: [1] 97 % of control | [3] 97 % of control | [5] 101 % of control

CSc1c(N)nc(N)[nH]c1=O
inactive: endpoint: mean survival time, dose: 100.0 mg/kg/injection, schedule: Q01DX001 (ip), vehicle: alkali diluted with water 96 % of control | endpoint: mean survival time, dose: 200.0 mg/kg/injection, schedule: Q01DX001 (ip), vehicle: alkali diluted with water 94 % of control | endpoint: mean survival time, dose: 400.0 mg/kg/injection, schedule: Q01DX001 (ip), vehicle: alkali diluted with water 96 % of control

CCOP(=O)(OCC)c1ncn(C2OC(CO)C3OC(C)(C)OC32)c1N (stereo not drawn)
inactive: endpoint: mean survival time, dose: 12.5 mg/kg/injection, schedule: Q01DX005 (ip), vehicle: water 92 % of control | endpoint: mean survival time, dose: 25.0 mg/kg/injection, schedule: Q01DX005 (ip), vehicle: water 100 % of control | endpoint: mean survival time, dose: 50.0 mg/kg/injection, schedule: Q01DX005 (ip), vehicle: water 96 % of control | endpoint: mean survival time, dose: 100.0 mg/kg/injection, schedule: Q01DX005 (ip), vehicle: water 92 % of control | endpoint: mean survival time, dose: 200.0 mg/kg/injection, schedule: Q01DX005 (ip), vehicle: water 92 % of control

COC(=O)C1(C)CCCC2(C)C1CCC13OC(=O)C(C(C)C)(CC21)C3O (stereo not drawn)
inactive: [11] 94 % of control | [12] 88 % of control | [13] 92 % of control

CC(C)CCn1cnc2c(=S)nc(N)[nH]c21
inactive: [2] 118 % of control | [4] 95 % of control

CCOC(=O)c1cc([N+](=O)[O-])cc([N+](=O)[O-])c1Sc1ncnc2nc[nH]c12
inactive: endpoint: mean survival time, dose: 0.63 mg/kg/injection, schedule: Q01DX005 (ip), vehicle: other 98 % of control | endpoint: mean survival time, dose: 1.25 mg/kg/injection, schedule: Q01DX005 (ip), vehicle: other 102 % of control | endpoint: mean survival time, dose: 2.5 mg/kg/injection, schedule: Q01DX005 (ip), vehicle: other 110 % of control | endpoint: mean survival time, dose: 5.0 mg/kg/injection, schedule: Q01DX005 (ip), vehicle: other 100 % of control | endpoint: mean survival time, dose: 6.25 mg/kg/injection, schedule: Q01DX005 (ip), vehicle: other 120 % of control | endpoint: mean survival time, dose: 10.0 mg/kg/injection, schedule: Q01DX005 (ip), vehicle: other 107 % of control | endpoint: mean survival time, dose: 18.8 mg/kg/injection, schedule: Q01DX005 (ip), vehicle: other 112 % of control

Cn1c2ccccc2c2ccccc21
inactive: [5] 100 % of control | [14] 102 % of control | [15] 97 % of control

CC(=O)OC(CNCC(=O)O)C(Cl)(Cl)Cl (stereo not drawn)
inactive: [5] 102 % of control | [14] 98 % of control | [15] 98 % of control

CCC(=O)N(N=O)c1ccccc1
inactive: endpoint: mean survival time, dose: 4.7 mg/kg/injection, schedule: Q04DX003 (ip), vehicle: saline 102 % of control | endpoint: mean survival time, dose: 9.4 mg/kg/injection, schedule: Q04DX003 (ip), vehicle: saline 107 % of control | endpoint: mean survival time, dose: 18.8 mg/kg/injection, schedule: Q04DX003 (ip), vehicle: saline 102 % of control

CC(=O)C(C(C)=O)C1C=CC=CC=C1
inactive: [10] 100 % of control | [12] 94 % of control

CC(=O)CC(=O)Nc1ccccc1
inactive: [8] 101 % of control | [9] 97 % of control | [10] 97 % of control

C=C1CC(C)(Cn2c(N)nc3nc[nH]c3c2=O)OC1=O (stereo not drawn)
inactive: endpoint: median survival time, dose: 5.38 mg/kg/injection, schedule: Q01DX005 (ip), vehicle: water 97 % of control | endpoint: median survival time, dose: 10.75 mg/kg/injection, schedule: Q01DX005 (ip), vehicle: water 97 % of control | endpoint: median survival time, dose: 21.5 mg/kg/injection, schedule: Q01DX005 (ip), vehicle: water 97 % of control | endpoint: median survival time, dose: 43.0 mg/kg/injection, schedule: Q01DX005 (ip), vehicle: water 112 % of control

CCCOP(=S)(NCCOC)OCCC
inactive: [5] 103 % of control | [14] 101 % of control | [15] 103 % of control

CCOCCNCc1ccc(Cl)c(Cl)c1
inactive: [5] 93 % of control | [14] 94 % of control

CSc1ccc(OC(=O)Nc2ccc(C)cc2C)cc1C
inactive: [8] 95 % of control | [9] 91 % of control | [10] 87 % of control and 89 % of control | [12] 93 % of control

O=Cc1cc2c(c3ccccc13)CCCC2
inactive: [11] 97 % of control | [12] 98 % of control | [13] 98 % of control
